ChEMBL document CHEMBL2311250 (Bioorg Med Chem Lett, 2013)
In brackets after ≈: the same amount, converted by molar mass.

Tests used:
[1] = molecular target: T1, Tyrosine-protein kinase receptor TYRO3 (Homo sapiens, UniProt Q06418); experiment: Inhibition of Sky (unknown origin) by ELISA kinase assay in presence of 60 uM ATP
T1 sequence (Q06418 whole entry): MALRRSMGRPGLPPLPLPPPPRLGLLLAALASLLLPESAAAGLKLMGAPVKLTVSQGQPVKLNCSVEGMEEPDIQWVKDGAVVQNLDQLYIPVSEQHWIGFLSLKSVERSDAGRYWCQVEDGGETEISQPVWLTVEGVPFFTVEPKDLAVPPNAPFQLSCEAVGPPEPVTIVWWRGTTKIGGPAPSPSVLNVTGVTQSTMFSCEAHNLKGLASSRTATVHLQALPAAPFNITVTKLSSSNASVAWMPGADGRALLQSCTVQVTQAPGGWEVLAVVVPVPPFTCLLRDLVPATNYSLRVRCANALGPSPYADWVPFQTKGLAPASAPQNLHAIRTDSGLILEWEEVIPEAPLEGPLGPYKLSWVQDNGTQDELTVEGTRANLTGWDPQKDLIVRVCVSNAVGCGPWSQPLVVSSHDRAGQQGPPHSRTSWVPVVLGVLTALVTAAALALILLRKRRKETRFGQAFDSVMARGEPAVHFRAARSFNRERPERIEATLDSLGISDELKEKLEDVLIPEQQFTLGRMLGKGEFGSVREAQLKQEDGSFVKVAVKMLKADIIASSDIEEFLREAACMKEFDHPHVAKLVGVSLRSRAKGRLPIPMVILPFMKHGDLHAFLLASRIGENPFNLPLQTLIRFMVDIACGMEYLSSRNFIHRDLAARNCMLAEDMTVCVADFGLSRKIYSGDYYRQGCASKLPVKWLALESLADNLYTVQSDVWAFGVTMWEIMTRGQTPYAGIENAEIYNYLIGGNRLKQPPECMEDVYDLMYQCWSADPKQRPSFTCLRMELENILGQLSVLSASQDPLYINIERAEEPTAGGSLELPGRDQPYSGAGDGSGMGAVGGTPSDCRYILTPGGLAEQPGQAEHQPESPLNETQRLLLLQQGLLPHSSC

hERG (KCNH2) = hERG (KCNH2) (Homo sapiens, UniProt Q12809); experiment: Displacement of [3H]dofetilide from human ERG at 10 uM; conditions: probe [3H]dofetilide
Sequence of hERG (KCNH2) (Q12809 whole entry): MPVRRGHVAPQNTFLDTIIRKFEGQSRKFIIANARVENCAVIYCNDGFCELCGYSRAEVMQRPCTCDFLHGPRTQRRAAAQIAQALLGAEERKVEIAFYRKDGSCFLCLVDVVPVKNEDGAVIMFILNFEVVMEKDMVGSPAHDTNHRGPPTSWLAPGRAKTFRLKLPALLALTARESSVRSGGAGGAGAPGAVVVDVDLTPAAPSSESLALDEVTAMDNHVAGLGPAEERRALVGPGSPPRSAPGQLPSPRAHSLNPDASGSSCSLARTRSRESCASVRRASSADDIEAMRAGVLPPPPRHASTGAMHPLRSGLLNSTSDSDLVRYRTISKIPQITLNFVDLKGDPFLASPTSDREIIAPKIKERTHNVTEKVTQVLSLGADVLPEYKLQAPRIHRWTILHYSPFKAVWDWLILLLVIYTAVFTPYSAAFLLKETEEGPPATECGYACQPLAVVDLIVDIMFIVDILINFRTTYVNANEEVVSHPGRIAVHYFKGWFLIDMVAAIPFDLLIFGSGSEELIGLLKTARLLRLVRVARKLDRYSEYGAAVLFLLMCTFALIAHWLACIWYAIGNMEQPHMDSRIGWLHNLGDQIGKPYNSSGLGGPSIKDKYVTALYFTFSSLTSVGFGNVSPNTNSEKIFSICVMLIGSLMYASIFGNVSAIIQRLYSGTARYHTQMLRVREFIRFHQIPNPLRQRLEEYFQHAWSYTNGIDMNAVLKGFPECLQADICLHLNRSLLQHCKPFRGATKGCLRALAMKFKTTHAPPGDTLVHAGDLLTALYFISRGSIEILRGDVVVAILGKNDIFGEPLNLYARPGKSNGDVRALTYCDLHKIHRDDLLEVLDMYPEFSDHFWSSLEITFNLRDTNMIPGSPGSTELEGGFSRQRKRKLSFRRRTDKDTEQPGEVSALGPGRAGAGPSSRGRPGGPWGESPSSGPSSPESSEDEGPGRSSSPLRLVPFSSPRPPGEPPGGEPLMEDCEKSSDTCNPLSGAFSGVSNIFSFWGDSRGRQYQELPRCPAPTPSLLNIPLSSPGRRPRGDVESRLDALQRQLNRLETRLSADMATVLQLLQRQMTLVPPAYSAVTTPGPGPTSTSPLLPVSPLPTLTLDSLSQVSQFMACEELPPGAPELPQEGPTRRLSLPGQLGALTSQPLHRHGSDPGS

[2] = Permeability of the compound by PAMPA; type: ADME; conditions: read-out: permeability
[3] = Aqueous solubility of the compound at ph 6.5; type: physicochemical
[4] = Half life in human liver microsomes; type: ADME, Microsome
Platelet = experiment: Inhibition of platelet aggregation (unknown origin); type: functional, cell-based
[5] = Half life in rat liver microsomes; type: ADME, Microsome
CYP2D6 = CYP2D6 (Homo sapiens, UniProt P10635); experiment: Inhibition of CYP2D6 (unknown origin) at 3 uM; type: ADME
Sequence of CYP2D6 (P10635 whole entry): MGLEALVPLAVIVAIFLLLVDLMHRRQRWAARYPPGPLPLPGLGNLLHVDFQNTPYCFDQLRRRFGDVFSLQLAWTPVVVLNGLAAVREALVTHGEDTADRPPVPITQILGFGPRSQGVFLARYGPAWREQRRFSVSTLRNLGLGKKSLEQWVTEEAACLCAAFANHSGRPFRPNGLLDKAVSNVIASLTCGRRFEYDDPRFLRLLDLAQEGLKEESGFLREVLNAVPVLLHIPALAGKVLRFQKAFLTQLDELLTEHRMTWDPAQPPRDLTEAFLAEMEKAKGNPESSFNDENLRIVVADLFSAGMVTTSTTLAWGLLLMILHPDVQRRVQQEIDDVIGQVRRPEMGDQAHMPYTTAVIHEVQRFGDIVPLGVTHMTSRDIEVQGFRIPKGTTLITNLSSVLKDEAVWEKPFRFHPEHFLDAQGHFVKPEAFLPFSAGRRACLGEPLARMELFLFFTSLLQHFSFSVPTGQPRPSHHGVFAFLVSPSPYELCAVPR

SMILES | IC50 [1] | inhibition at 10 µM (hERG (KCNH2)) | Papp [2] | solubility [3] | half-life [4] | IC50 (Platelet) | half-life [5] | inhibition at 3 µM (CYP2D6)
CC[C@@H](CO)Nc1nc(Nc2cc(Cl)cc(Cl)c2)ncc1C(=O)NC1CCN(C)CC1 | 0.003 µM | 3.4% | 20 nm/s | 3.5 µM (≈ 1.64 µg/mL) | 37 min | – | – | –
COc1ccccc1CNc1ncc(C(=O)NCCCN2CCCC2=O)c(NC2CCCC2)n1 | – | 7% | 15 nm/s | 81.6 µM (≈ 38.1 µg/mL) | – | 46 µM | 16 min | –
O=C(NCCCN1CCCC1=O)c1cnc(NCc2cc(Cl)ccc2Cl)nc1NC1CCCC1 | – | 23% | 1 nm/s | 3.9 µM (≈ 1.97 µg/mL) | – | 28 µM | 4 min | –
O=C(NCCCN1CCOC1=O)c1cnc(NCc2cc(Cl)ccc2Cl)nc1NC1CCCC1 | – | 33% | – | 1.3 µM (≈ 0.66 µg/mL) | – | 29 µM | < 5 min | –
COc1ccccc1CNc1ncc(C(=O)NCCNC(C)=O)c(NC2CCCC2)n1 | 0.38 µM | 35% | 19 nm/s | 7.8 µM (≈ 3.33 µg/mL) | 5 min | – | – | –
COc1ccccc1CNc1ncc(C(=O)NCCc2nnn[nH]2)c(NC2CCCC2)n1 | 1.3 µM | 79% | 210 nm/s | 12 µM (≈ 5.25 µg/mL) | 60 min | – | 22 min | –
COc1ccccc1CNc1ncc(C(=O)NCCCCN(C)C)c(NC2CCCC2)n1 | 0.5 µM | 28% | – | 200 µM (≈ 88.1 µg/mL) | 40 min | 24 µM | – | –
CN1CCC(NC(=O)c2cnc(NCc3cc(Cl)ccc3Cl)nc2NC2CCC(N(C)C)CC2)CC1 (centres undefined) | 0.041 µM | 1.6% | 20 nm/s | 89 µM (≈ 47.6 µg/mL) | 23 min | – | 57 min | –
CN1CCC(NC(=O)c2cnc(Nc3cc(Cl)cc(Cl)c3)nc2NC2CCOCC2)CC1 | 0.009 µM | – | < 1 nm/s | 40 µM (≈ 19.2 µg/mL) | 35 min | – | – | –
CN1CCC(NC(=O)c2cnc(Nc3cc(Cl)cc(Cl)c3)nc2N[C@H]2CCCCNC2=O)CC1 | 0.006 µM | 4% | 2 nm/s | 2.3 µM (≈ 1.16 µg/mL) | 41 min | – | – | –
Cc1cc(-c2cnc(Nc3cc(Cl)cc(Cl)c3)nc2NC2CCNCC2)on1 | 0.092 µM | 1.3% | 2 nm/s | 5.2 µM (≈ 2.18 µg/mL) | 21 min | – | 3 min | 81%
O[C@@H]1COC[C@H]1Nc1nc(Nc2cc(Cl)cc(Cl)c2)ncc1-c1cccnc1 | 0.044 µM | 1.5% | 10 nm/s | 200 µM (≈ 83.7 µg/mL) | 120 min | – | 31 min | 88%
O[C@@H]1COC[C@H]1Nc1nc(Nc2cc(Cl)cc(Cl)c2)ncc1-c1ccc(F)cc1 | 0.15 µM | 2.7% | < 0.1 nm/s | 200 µM (≈ 87.1 µg/mL) | 48 min | – | 60 min | 24%
O[C@@H]1COC[C@H]1Nc1nc(Nc2cc(Cl)cc(Cl)c2)ncc1Br | 0.015 µM | > 100% | 3 nm/s | 5.2 µM (≈ 2.18 µg/mL) | 30 min | – | 31 min | 1%
COc1ccccc1CNc1ncc(C(=O)NCCCO)c(NC2CCCC2)n1 | 0.16 µM | 35% | 9 nm/s | 7.8 µM (≈ 3.12 µg/mL) | 11 min | 46 µM | – | –
